The subject of experiment [1] is J774. Kind of experiment: Inhibition of RGGT-mediated Rap1A prenylation in mouse J774 cells after 24 hrs by Western blot analysis. In kind it is cell-based. (In general: A western blot detects proteins with antibodies after separation by electrophoresis.)
The subject of experiment [2] is J774. The experiment in a line: Inhibition of RGGT-mediated Rab11 prenylation in mouse J774 cells after 24 hrs by Western blot analysis. In kind it is cell-based.
Experiment [3] can be described thus: Inhibition of GGTase1 assessed as incorporation of [3H]GGPP into His-tagged canine rab1a after 30 mins.
Experiment [4] in a line: Inhibition of recombinant RGGT assessed as incorporation of [3H]GGPP into His-tagged canine rab1a after 20 mins.
Experiment [5] in a line: Inhibition of recombinant RGGT assessed as incorporation of [3H]GGPP into His-tagged canine rab1a after 30 mins.
The species entered for experiment [6] is Rattus norvegicus. The experiment in a line: Antiresorptive activity in Schenk growing rat model assessed as inhibition of bone resorption. In kind it is functional.
For experiment [7], the target named is T1, Farnesyl pyrophosphate synthase (Homo sapiens, UniProt P14324).
T1 sequence (P14324 whole entry): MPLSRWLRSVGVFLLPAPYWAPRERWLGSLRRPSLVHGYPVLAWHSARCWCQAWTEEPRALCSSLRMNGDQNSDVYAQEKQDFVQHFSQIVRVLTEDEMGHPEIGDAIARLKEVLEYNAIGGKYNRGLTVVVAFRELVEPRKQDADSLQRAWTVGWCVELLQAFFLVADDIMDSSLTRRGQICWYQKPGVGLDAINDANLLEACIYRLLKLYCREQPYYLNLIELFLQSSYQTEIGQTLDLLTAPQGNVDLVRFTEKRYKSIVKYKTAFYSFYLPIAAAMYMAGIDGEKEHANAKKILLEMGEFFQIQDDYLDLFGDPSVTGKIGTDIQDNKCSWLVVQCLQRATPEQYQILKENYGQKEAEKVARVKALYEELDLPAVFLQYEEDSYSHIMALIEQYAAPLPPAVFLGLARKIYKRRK
The experiment in a line: Inhibition of human FPPS after 10 mins using [14C]IPP as substrate by liquid scintillation counting.

In experiment [8] the test system is J774. The experiment in a line: Cytotoxicity against mouse J774 cells assessed as cell viability after 48 hrs by alamar blue assay. Format: functional, cell-based. On the technique in general: Resazurin is reduced to fluorescent resorufin, in cell work by metabolically active cells.
The nature of experiment [9]: Inhibition of recombinant RGGT by uncompetitive inhibition based Lineweaver-Burke plot using Rab1a as substrate.
Experiment [10] has as its system Osteoclast. Kind of experiment: Antiresorptive activity in rabbit osteoclasts assessed as number of actin rings after 48 hrs using TRITC-phelloidin stain relative to control. Format: functional, cell-based. Particulars: Oryctolagus cuniculus.
Experiment [11] has as its target T2, Farnesyl pyrophosphate synthase (Homo sapiens) (UniProt P14324).
T2 sequence (whole entry): T1 sequence (P14324 whole entry)
Kind of experiment: Inhibition of human FPPS at 10 uM after 10 mins using [14C]IPP as substrate.

The target in experiment [12] is T3, Geranylgeranyl transferase type-2 subunit alpha (Homo sapiens) (UniProt Q92696).
T3 sequence (whole entry): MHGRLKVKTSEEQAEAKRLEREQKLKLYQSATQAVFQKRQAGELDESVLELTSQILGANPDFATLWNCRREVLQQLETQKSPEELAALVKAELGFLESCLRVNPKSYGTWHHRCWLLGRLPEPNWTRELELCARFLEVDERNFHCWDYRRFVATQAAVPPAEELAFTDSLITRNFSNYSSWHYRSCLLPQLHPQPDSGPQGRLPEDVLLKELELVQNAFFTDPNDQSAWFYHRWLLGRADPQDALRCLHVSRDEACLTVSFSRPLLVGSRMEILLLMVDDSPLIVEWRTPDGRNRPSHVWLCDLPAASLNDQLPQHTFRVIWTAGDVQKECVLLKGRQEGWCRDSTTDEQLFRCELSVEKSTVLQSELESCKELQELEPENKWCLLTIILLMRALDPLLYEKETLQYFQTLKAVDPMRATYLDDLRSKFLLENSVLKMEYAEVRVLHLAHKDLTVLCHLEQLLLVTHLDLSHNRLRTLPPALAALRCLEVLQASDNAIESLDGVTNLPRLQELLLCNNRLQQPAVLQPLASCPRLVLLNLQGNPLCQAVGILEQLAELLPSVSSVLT
The experiment in a line: Inhibition of rabbit osteoclast rab11 prenylation after 24 hrs by Western blot analysis. Particulars: Oryctolagus cuniculus; target entry is the homologue from another species.

In experiment [13] the target is Protein farnesyltransferase/geranylgeranyltransferase type-1 subunit alpha (Homo sapiens) (UniProt P49354). The experiment in a line: Inhibition of GGTase1 assessed as incorporation of [3H]GGPP into His-tagged canine rab1a at 1 mM after 30 mins.
Experiment [14] deals with T4, Geranylgeranyl pyrophosphate synthase (Homo sapiens) (UniProt O95749).
T4 sequence (whole entry): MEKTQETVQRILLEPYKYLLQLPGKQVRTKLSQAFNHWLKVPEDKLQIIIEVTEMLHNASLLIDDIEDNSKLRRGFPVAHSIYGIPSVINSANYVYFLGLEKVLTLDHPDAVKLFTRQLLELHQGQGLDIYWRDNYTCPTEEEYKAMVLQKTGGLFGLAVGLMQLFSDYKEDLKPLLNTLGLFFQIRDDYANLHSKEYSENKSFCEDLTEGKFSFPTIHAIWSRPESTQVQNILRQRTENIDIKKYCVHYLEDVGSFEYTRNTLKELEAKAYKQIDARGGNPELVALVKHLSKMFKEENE
Kind of experiment: Inhibition of GGPPS at 1mM after 10 mins using [14C]IPP as substrate by liquid scintillation counting.

Activity calls are given as the source filed them. No cut-off for these calls is given here.

With `O=P(O)(O)C(O)(Cc1cccnc1)P(=O)(O)O`, the LED in experiment [1] and in experiment [2] was 12 µM in each case.

As usually defined, the IC50 is the concentration that gives 50% inhibition. In general, Ki refers to a measure of affinity in units of concentration, obtained from inhibition or displacement. Take `O=C(O)C(O)(Cc1cccnc1)P(=O)(O)O` (racemic) [listing 1 of 2 here]: the IC50 is > 2000 µM in [3]; 32 µM in experiment [4]; 51.7 µM in experiment [5]; > 1000 µM in experiment [7]; 2800 µM in [8] (Mus musculus, J774, 48 h); 970 µM in experiment [10]. In experiment [6], the LED was found to be 12 mg/kg. In addition, the Ki in experiment [9] stood at 33.6 µM.

Take `O=C(O)C(O)(Cc1cccnc1)P(=O)(O)O` (racemic) [listing 2 of 2 here]: in experiment [2], the LED is 100 µM. Moreover, the result in [11] was inactive. This compound also came in with an Activity in experiment [12] of 200 µM.

For the compound `O=C(O)C(O)(Cc1cnc2ccccn12)P(=O)(O)O` (racemic), the LED in experiment [1] was > 100 µM; in experiment [2], 3 µM. Besides, in [11], the result was inactive. The compound further showed an Activity in experiment [12] of 12.5 µM.

Regarding `O=C(O)C(O)(Cc1cnc2ccccn12)P(=O)(O)O` (racemic) [(2-HYDROXY-3-IMIDAZO[1,2-A]PYRIDIN-3-YL-2-PHOSPHONOPROPIONIC ACID (ENANTIONMERS)], the IC50 in experiment [5] was 12.5 µM; in [7], > 10 µM; in experiment [8] (j774), 47 µM; in experiment [10], 330 µM. Further, the LED in experiment [6] is 2.8 mg/kg.

For the compound `O=C(O)C(O)(Cc1cnc2ccccn12)P(=O)(O)O` (single isomer, unassigned; (+)), the LED came out at 100 µM in experiment [1] and 3 µM in [2]. Further, the result in experiment [13] and in experiment [14] was inactive.

Take `O=C(O)C(O)(Cc1cnc2ccccn12)P(=O)(O)O` (single isomer, unassigned; (+)) [(2-HYDROXY-3-IMIDAZO[1,2-A]PYRIDIN-3-YL-2-PHOSPHONOPROPIONIC ACID (ENANTIONMERS)]: the IC50 is > 800 µM in experiment [3], 1.3 µM in experiment [4], 1.1 µM in experiment [5] and 31 µM in [8] (j774). For the same compound, the Ki in experiment [9] amounted to 0.211 µM.

In the case of `O=C(O)C(O)(Cc1cccnc1)P(=O)(O)O` (single isomer, unassigned; enantiomer 1) [listing 1 of 2 here], the IC50 in experiment [5] was determined as 39 µM.

`O=C(O)C(O)(Cc1cccnc1)P(=O)(O)O` (single isomer, unassigned; enantiomer 1) [listing 2 of 2 here]: the LED in [2] is 63 µM.

For the compound `O=C(O)C(O)(Cc1cccnc1)P(=O)(O)O` (single isomer, unassigned; enantiomer 2) [listing 1 of 2 here], in experiment [5], the IC50 amounted to 150 µM.

On to `O=C(O)C(O)(Cc1cccnc1)P(=O)(O)O` (single isomer, unassigned; enantiomer 2) [listing 2 of 2 here], for which the LED in experiment [2] amounted to 250 µM.

For `O=C(O)C(O)(Cc1cnc2ccccn12)P(=O)(O)O` (single isomer, unassigned; enantiomer 2), the values for the LED in experiment [1] and in experiment [2] were 4000 µM and 50 µM, respectively. The result in [13] and in experiment [14] was inactive.

For `O=C(O)C(O)(Cc1cnc2ccccn12)P(=O)(O)O` (single isomer, unassigned; enantiomer 2) [(2-HYDROXY-3-IMIDAZO[1,2-A]PYRIDIN-3-YL-2-PHOSPHONOPROPIONIC ACID (ENANTIONMERS)], the IC50 is 67.7 µM in experiment [5] and > 800 µM in experiment [8] (j774).

`O=P(O)(O)C(O)(Cc1cnc2ccccn12)P(=O)(O)O` [MINODRONIC ACID]: the LED in [1] and in [2] was 3 µM throughout. Further, the IC50 was > 1000 µM in experiment [5] and 3 µM in experiment [8] (Mus musculus, J774, 48 h).

Source of the values: ChEMBL document CHEMBL1157780, “Synthesis, chiral high performance liquid chromatographic resolution and enantiospecific activity of a potent new geranylgeranyl transferase inhibitor, 2-hydroxy-3-imidazo[1,2-a]pyridin-3-yl-2-phosphonopropionic acid” (J Med Chem, 2010).
